Experimental data published in patent EP0210227B1, “PYRIMIDINE SULFATES FOR HAIR GROWTH” (THE UPJOHN COMPANY, priority 1985, dated 1986).
Structures can show the parent of a compound that is named as a salt.

Assays:
Format in all cases: in vivo
[1] = tested on: hair-deficient mice called "nude" (nu/nu); assay: Hair growth in nude mice, oral drug daily without resting on weekends (Example 2); details: for Score of Photos 1+ (Number of animals with at least 1 of 5 photos showing positive hair growth) / Score of Photos 2+ (Number of animals with at least 2 of 5 photos showing positive hair growth): Example 2, daily, eleven week old mice; for inducing hair growth, compared with minoxidil: summary of Table I in words
Source text: (§1) The present invention is illustrated by the Examples, below. Examples 1-3 illustrate the effect of minoxidil sulfate (a compound of the present invention) and minoxidil (the corresponding N-oxide) in genetically identical hair-deficient mice called "nude" (nu/nu) (see Flanagen, Genet. Res. 8:295-309 (1966)). […] All mice in the species mus grow hair in a definite, 20 day cycle, going from head to tail (see Barom, Acta Path. Micro. Scan. 34: 521-541 (1954)). "Nude" mice have the same pattern (see Eton, Transplantation 22: 217-222 (1976)). Hair fails to appear in the nude mouce since it never emerges due to the fact that the hair shaft is incompletely formed, poorly keratinized, or both. The nacent hair shafts fragment within the follicle and thus never emerge or break near the skin surface. The hair produced in the nude mice treated with the compounds described below is more normal and mechanically competent to emerge and persit. Eventually, however, even the hair produced in the drug treated animals falls out due to the genetic defect of these animals. Nonetheless, significant differences in hair growth can be observed in the drug treated animals as compared to the control animals during the twenty day cycle.
(§2) In the Examples, five photographs were taken of the animals every six days over a four week period.
Eleven week old mice from the same group fo animals as used in Example 1 were treated by oral administration of 0.25 ml of either minoxidil or minoxidil sulfate in water daily without resting on weekends. Weights were assumed to be an average of 25 g per animal for dosing purposes.

Balb/c nu/nu male mice = assay: Hair growth in nude mice, daily oral or topical drug (Example 3); details: six week old mice
Source text: as §1, §2
Six week old Balb/c nu/nu male mice were given daily oral drug (without resting on weekends) in 0.25 ml water. Topical minoxidil sulfate was applied in 0.25 ml of a propylene glycol, ethanol, and watervehicle.

stumptail Macque monkeys = assay: Hair growth rate on the scalp of balding monkeys, topical solution (Example 4); details: for Mean wt. (clipped hair, 2.54 cm square area of treated scalp): topical daily, 250 microliters of 750 mg in 50 ml acetone:N-methylpyrrolidone 94:6
Experimental: Topical minoxidil sulfate solution was applied to a group of 6 stumptail Macque monkeys daily, 7 days/ week. The topical minoxidil sulfate solution was prepared by dissolving 750 mg of minoxidil sulfate in 50 ml of a 94:6 volume:volume solution of acetone: N-methylpyrrolidone. A second group of 6 animals served as controls and received vehicle only. the volume per application was 250 microliters applied to the frontal scalp with an art brush. Hair growth rate within a 2.54 cm (1 inch) square area of treated scalp was assessed by quantitatively clipping the hair at successive intervals of 42 days, 21 days and 21 days and weighing the residue.

[2] = 20 mg/kg topical in propylene glycol, ethanol and water vehicle
[3] = 40 mg/kg topical in propylene glycol, ethanol and water vehicle

Nc1cc(N2CCCCC2)nc(N)[n+]1OS(=O)(=O)[O-] [Minoxidil Sulfate, 2,6-Diamino-4-(1-piperidinyl)-1-(sulfoxy)-pyrimidinium hydroxide, inner salt] was tested, and the “Score of Photos 1+ (Number of animals with at least 1 of 5 photos showing positive hair growth)” value ([1]; 20 mg/kg oral) was 4/5, the “Score of Photos 2+ (Number of animals with at least 2 of 5 photos showing positive hair growth)” value ([1]; 20 mg/kg oral) was 3/5 and the “Score of Photos 1+ (Number of animals with at least 1 of 5 photos showing positive hair growth)” value ([1]; 40 mg/kg oral) was 3/5. For the same compound, the “Score of Photos 2+ (Number of animals with at least 2 of 5 photos showing positive hair growth)” value ([1]; 40 mg/kg oral) was 1/5, the “inducing hair growth, compared with minoxidil” value ([1]; at 20 mg/kg) was “significantly better than minoxidil” and the “inducing hair growth, compared with minoxidil” value ([1]; at 40 mg/kg) was “equipotent to or better than minoxidil”. The “Score of Photos 1+ (Number of animals with at least 1 of 5 photos showing positive hair growth)” value (Balb/c nu/nu male mice; 5 mg/kg oral, daily) was 2/5, the “Score of Photos 2+ (Number of animals with at least 2 of 5 photos showing positive hair growth)” value (Balb/c nu/nu male mice; 5 mg/kg oral, daily) was 1/5 and the “Score of Photos 1+ (Number of animals with at least 1 of 5 photos showing positive hair growth)” value (Balb/c nu/nu male mice; 10 mg/kg oral, daily) was 1/5. The “Score of Photos 2+ (Number of animals with at least 2 of 5 photos showing positive hair growth)” value (Balb/c nu/nu male mice; 10 mg/kg oral, daily) was 1/5, the “Score of Photos 1+ (Number of animals with at least 1 of 5 photos showing positive hair growth)” value (Balb/c nu/nu male mice; 20 mg/kg oral, daily) was 2/5 and the “Score of Photos 2+ (Number of animals with at least 2 of 5 photos showing positive hair growth)” value (Balb/c nu/nu male mice; 20 mg/kg oral, daily) was 1/5. For the same compound, the “Score of Photos 1+ (Number of animals with at least 1 of 5 photos showing positive hair growth)” value (Balb/c nu/nu male mice; [2]) was 2/5, the “Score of Photos 2+ (Number of animals with at least 2 of 5 photos showing positive hair growth)” value (Balb/c nu/nu male mice; [2]) was 0/5 and the “Score of Photos 1+ (Number of animals with at least 1 of 5 photos showing positive hair growth)” value (Balb/c nu/nu male mice; 40 mg/kg oral, daily) was 3/5. The “Score of Photos 2+ (Number of animals with at least 2 of 5 photos showing positive hair growth)” value (Balb/c nu/nu male mice; 40 mg/kg oral, daily) was 0/5, the “Score of Photos 1+ (Number of animals with at least 1 of 5 photos showing positive hair growth)” value (Balb/c nu/nu male mice; [3]) was 2/5 and the “Score of Photos 2+ (Number of animals with at least 2 of 5 photos showing positive hair growth)” value (Balb/c nu/nu male mice; [3]) was 1/5. The “Mean wt. (clipped hair, 2.54 cm square area of treated scalp)” value (stumptail Macque monkeys; Collection 1 (interval of 42 days)) was 76 ±20 uG/day, the “Mean wt. (clipped hair, 2.54 cm square area of treated scalp)” value (stumptail Macque monkeys; Collection 2 (next interval of 21 days)) was 313 ±67 uG/day and the “Mean wt. (clipped hair, 2.54 cm square area of treated scalp)” value (stumptail Macque monkeys; Collection 3 (last interval of 21 days)) was 343 ±52 uG/day. The “hair growth following topical application to the scalp” value (stumptail Macque monkeys; balding monkeys, summary of Table II in words) was “stimulates hair growth” and the “increase in hair growth versus vehicle” value (stumptail Macque monkeys; by the third collection, summary of Table II in words) was “statistically significant increase in hair growth”.
